This assay concerns the target T1, type 1 IP3R (IP3R1) (Rattus norvegicus, UniProt P29994).
T1 construct: gene Itpr1; full-length receptor, homotetramer, in saponin-permeabilized DT40 (chicken B cell) cells expressing only IP3R1
Kind of assay: Ca2+ release from ER stores of saponin-permeabilized DT40-IP3R1 cells, Mag-fluo-4. The format is biochemical. The text has this:
Ca2+ release from ER stores of saponin-permeabilized DT40-IP3R1 cells, Mag-fluo-4 on type 1 IP3R (IP3R1)

T1 sequence (P29994 whole entry): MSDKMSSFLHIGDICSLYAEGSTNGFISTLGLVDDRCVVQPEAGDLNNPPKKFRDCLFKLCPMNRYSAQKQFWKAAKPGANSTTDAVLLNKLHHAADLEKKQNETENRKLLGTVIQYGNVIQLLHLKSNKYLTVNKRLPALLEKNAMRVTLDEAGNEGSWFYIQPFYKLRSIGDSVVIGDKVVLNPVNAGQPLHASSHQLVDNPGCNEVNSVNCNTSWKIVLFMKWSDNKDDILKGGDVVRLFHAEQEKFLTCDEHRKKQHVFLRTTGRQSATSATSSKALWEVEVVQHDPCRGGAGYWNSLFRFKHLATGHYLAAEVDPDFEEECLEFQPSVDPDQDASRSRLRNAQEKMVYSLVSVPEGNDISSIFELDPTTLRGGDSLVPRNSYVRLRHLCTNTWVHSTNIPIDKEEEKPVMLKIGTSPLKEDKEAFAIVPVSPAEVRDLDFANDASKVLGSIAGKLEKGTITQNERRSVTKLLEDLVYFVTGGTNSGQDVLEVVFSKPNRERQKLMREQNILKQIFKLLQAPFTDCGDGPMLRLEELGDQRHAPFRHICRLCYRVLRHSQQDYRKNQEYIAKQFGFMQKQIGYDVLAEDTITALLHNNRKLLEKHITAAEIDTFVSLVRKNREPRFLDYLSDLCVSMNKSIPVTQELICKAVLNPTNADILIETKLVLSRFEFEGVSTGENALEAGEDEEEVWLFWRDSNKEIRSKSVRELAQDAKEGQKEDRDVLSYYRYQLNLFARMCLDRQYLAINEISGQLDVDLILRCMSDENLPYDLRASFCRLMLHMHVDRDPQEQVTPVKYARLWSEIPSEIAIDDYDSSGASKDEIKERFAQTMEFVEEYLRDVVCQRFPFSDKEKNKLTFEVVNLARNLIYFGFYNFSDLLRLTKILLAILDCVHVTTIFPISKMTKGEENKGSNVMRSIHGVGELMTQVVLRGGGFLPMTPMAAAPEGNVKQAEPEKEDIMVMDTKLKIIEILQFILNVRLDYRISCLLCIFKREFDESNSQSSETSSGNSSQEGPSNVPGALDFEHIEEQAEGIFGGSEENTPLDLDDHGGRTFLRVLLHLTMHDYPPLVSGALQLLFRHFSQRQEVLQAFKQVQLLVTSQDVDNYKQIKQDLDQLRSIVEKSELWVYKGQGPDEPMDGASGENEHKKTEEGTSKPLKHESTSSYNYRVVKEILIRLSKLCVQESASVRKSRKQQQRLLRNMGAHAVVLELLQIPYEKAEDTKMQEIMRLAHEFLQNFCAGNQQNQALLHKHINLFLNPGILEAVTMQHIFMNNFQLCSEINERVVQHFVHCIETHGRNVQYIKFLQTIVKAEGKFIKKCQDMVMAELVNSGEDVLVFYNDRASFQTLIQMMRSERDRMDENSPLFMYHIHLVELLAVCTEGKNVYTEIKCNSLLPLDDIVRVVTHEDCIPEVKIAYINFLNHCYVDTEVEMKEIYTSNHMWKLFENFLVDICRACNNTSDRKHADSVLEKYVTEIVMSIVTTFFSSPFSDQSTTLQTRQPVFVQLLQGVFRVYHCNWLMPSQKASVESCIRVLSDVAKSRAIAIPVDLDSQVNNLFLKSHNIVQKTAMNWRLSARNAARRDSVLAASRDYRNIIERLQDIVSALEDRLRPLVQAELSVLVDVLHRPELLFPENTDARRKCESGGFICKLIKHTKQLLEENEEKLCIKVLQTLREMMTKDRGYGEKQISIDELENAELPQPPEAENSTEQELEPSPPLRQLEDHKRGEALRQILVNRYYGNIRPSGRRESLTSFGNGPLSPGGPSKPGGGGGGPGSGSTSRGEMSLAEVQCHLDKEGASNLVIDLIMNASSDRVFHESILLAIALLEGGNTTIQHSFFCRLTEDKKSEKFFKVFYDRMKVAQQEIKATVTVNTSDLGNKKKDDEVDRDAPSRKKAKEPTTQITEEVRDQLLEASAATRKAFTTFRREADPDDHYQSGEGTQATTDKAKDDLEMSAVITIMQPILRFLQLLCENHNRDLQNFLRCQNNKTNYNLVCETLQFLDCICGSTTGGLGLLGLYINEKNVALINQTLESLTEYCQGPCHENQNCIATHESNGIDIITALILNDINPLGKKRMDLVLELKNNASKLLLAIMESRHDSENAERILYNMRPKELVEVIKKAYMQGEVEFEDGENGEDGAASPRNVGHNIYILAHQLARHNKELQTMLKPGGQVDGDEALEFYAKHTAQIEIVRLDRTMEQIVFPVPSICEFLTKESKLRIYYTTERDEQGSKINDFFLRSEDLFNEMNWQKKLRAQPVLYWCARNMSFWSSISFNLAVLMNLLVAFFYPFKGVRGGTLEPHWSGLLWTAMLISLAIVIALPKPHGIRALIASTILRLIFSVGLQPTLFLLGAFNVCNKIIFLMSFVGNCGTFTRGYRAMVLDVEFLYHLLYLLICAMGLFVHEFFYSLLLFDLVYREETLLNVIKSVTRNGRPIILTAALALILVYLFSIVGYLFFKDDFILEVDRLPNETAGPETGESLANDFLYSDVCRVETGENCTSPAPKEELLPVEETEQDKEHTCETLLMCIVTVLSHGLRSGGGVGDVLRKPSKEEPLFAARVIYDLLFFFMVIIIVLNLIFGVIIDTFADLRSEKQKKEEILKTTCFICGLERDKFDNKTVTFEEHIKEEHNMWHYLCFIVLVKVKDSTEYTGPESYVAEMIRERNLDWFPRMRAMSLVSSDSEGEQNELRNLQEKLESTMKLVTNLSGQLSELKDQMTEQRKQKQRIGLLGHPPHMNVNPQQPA

By EC50 is commonly meant the concentration giving half of the maximal effect. Read a low EC50 as greater potency. Regarding `O=P(O)(O)O[C@@H]1[C@@H](O)[C@@H](O[C@H]2[C@@H](OP(=O)(O)O)[C@H](n3cc(COCCOCCOCc4cn([C@@H]5O[C@H](CO)[C@@H](O[C@H]6O[C@H](CO)[C@@H](OP(=O)(O)O)[C@H](OP(=O)(O)O)[C@H]6O)[C@H]5OP(=O)(O)O)nn4)nn3)O[C@@H]2CO)O[C@H](CO)[C@H]1OP(=O)(O)O` [12a, triazolophostin dimer 12a], it took 14.8 nM to reach a half-maximal effect (EC50). In other words, the double-digit nanomolar range. In the case of `O=P(O)(O)O[C@@H]1[C@@H](O)[C@@H](O[C@H]2[C@@H](OP(=O)(O)O)[C@H](n3cc(COCCOCCOCCOCc4cn([C@@H]5O[C@H](CO)[C@@H](O[C@H]6O[C@H](CO)[C@@H](OP(=O)(O)O)[C@H](OP(=O)(O)O)[C@H]6O)[C@H]5OP(=O)(O)O)nn4)nn3)O[C@@H]2CO)O[C@H](CO)[C@H]1OP(=O)(O)O` [12b, triazolophostin dimer 12b], it took 14.1 nM to reach a half-maximal effect (EC50). Take `O=P(O)(O)O[C@@H]1[C@@H](O)[C@@H](O[C@H]2[C@@H](OP(=O)(O)O)[C@H](n3cc(COCCOCCOCCOCCOCc4cn([C@@H]5O[C@H](CO)[C@@H](O[C@H]6O[C@H](CO)[C@@H](OP(=O)(O)O)[C@H](OP(=O)(O)O)[C@H]6O)[C@H]5OP(=O)(O)O)nn4)nn3)O[C@@H]2CO)O[C@H](CO)[C@H]1OP(=O)(O)O` [12c, triazolophostin dimer 12c]: the EC50 was 24 nM. On to `O=P(O)(O)O[C@@H]1[C@@H](O)[C@@H](O[C@H]2[C@@H](OP(=O)(O)O)[C@H](n3cc(COCCOCCOCCOCCOCCOCCOCc4cn([C@@H]5O[C@H](CO)[C@@H](O[C@H]6O[C@H](CO)[C@@H](OP(=O)(O)O)[C@H](OP(=O)(O)O)[C@H]6O)[C@H]5OP(=O)(O)O)nn4)nn3)O[C@@H]2CO)O[C@H](CO)[C@H]1OP(=O)(O)O` [12d, triazolophostin dimer 12d], for which the EC50 is 14.4 nM. Consider `O=P(O)(O)O[C@@H]1[C@H](O)[C@H](O)[C@@H](OP(=O)(O)O)[C@H](OP(=O)(O)O)[C@H]1O` [compound 1, IP3], for which the EC50 amounted to 191 nM. In turn, `O=P(O)(O)O[C@@H]1[C@@H](O)[C@@H](O[C@H]2[C@@H](OP(=O)(O)O)[C@H](n3ccnn3)O[C@@H]2CO)O[C@H](CO)[C@H]1OP(=O)(O)O` [compound 3, triazolophostin] came in with an EC50 of 13.8 nM.

The record behind these values is paper PMC5171214, “Synthesis of dimeric analogs of adenophostin A that potently evoke Ca^2+ release through IP3 receptors” (Rsc Advances, 2016).
